{"source": "patent US20260028295A1", "about": "“COMPOSITIONS THAT CONTAIN SUSPENDED DICYANDIAMIDE, AND RELATED METHODS” (Keystone Specialty Chemicals LLC, priority 2022, published 2026)", "origin": "cited, not measured here", "conditions": "25 degrees Celsius"}
{"smiles": "N#CNC(=N)N", "note": "[Dicyandiamide]", "values": [{"measurement": "solubility in water", "value": 4.13, "unit": "grams per 100 milliliter"}]}
